Data taken from patent US8609708B2 (Human BioMolecular Research Institute, priority 2003, dated 2013).
Like-named read-outs stand apart in the source and are kept apart here.

Assays:
CYP3A4 = CYP3A4 (Homo sapiens (Human), UniProt P08684); test: in vitro
CYP2B6 = CYP2B6 (Homo sapiens (Human), UniProt P20813); test: CYP2B6 Vivid blue substrate O-dealkylation inhibition; format: biochemical
Microsomal Human CYP2A6 = Microsomal Human CYP2A6 (Homo sapiens (Human), UniProt P11509); test: Microsomal human CYP2A6-mediated nicotine oxidase activity
Procedure: For each determination, cold microsomes (of predetermined CYP2A6 activity) was added to the NADPH-generating system containing 50 mM Tris (pH=7.4) and DETAPAC (to prevent metal-catalyzed autooxidation) and inhibitor. Because rat liver cytosol has little CYP2A6 activity and high levels of aldehyde oxidase, 0.2 mg/incubation was used to quantitatively convert the nicotine iminium ion to cotinine. […] For initial evaluation of a large number of samples, [^3]H-nicotine was used in a TLC/radiometric format. […] Quantification of scrapped bands was by scintillation counting.

human CYP2A6 [1] = molecular target: T1, human CYP2A6 (Homo sapiens (Human), UniProt P11509); conditions: for IC50: human, pH 7.5
CYP2C9 = CYP2C9 (Homo sapiens (Human), UniProt P11712); test: CYP2C9 Vivid blue substrate O-dealkylation inhibition; format: biochemical
CYP2E1 = CYP2E1 (Homo sapiens (Human), UniProt P05181); test: CYP2E1 Vivid blue substrate O-dealkylation inhibition; format: biochemical
CYP2D6 = CYP2D6 (Homo sapiens (Human), UniProt P10635); test: CYP2D6 Vivid blue substrate O-dealkylation inhibition; format: biochemical
[2] = molecular target: Ach binding protein (AchBP) (Lymnaea stagnalis (Great pond snail) (Helix stagnalis), UniProt P58154); conditions: for binding to the AchBP (in words): fluorescence quenching; for AchBP: intrinsic fluorescence quenching, 20 nM AchBP
Source text: To examine the degree of interaction with the nicotinic acetylcholine receptor, we examined the binding interaction of the synthetic inhibitors with the Ach binding protein (AchBP) from the fresh water snail (Table 3).

CYP2C19 = CYP2C19 (Homo sapiens (Human), UniProt P33261); test: CYP2C19 Vivid blue substrate O-dealkylation inhibition; format: biochemical
[3] = molecular target: Acetylcholine Binding Protein (Lymnaea stagnalis (Great pond snail) (Helix stagnalis), UniProt P58154); design: species or system Lymnaca stagnalis
P450 2A6dH = P450 2A6dH (Homo sapiens (Human), UniProt P11509, INS494HHHH); test: Difference spectra of test compounds with N-terminal truncated CYP2A6; conditions: for λmax / λmin: difference spectrum; for binding type: difference spectrum with truncated CYP2A6
Procedure: Subsequently, test compound (in 100% ethanol, 10 μM) was added to both the cuvettes. The maximal ethanol concentration used was 2%. The difference spectra were obtained after the system reached equilibrium (3 min). All spectra were recorded at 25° C.

human CYP2A6 [4] = molecular target: T1, human CYP2A6; test: CYP2A6 mediated coumarin 7-hydroxylation inhibition
[5] = Human liver microsome stability assay; conditions: human liver microsomes; for half-life at 40 μM: human, pH 7.4
[6] = Mouse liver microsome stability assay; conditions: mouse liver microsomes; for MLM t1/2: 40 μM test compound
Procedure: The residue was reconstituted in methanol (200 μL), centrifuged at 13,000 rpm for 5 min and the supernatant was analyzed by high-performance liquid chromatography with an Axxi-chrom (straight-phase) silica column (4.6 mm×250 mm, 5 μm) or with a Supelco (reverse-phase) HS F5 pentafluorophenyl column (4.6 mm×250 mm, 5 μm).

[7] = molecular target: CYP3A4 relative to CYP2A6 (Homo sapiens (Human), UniProt P08684); test: in vitro; conditions: human; for selectivity ratio at 30 min: pH 7.5
[8] = molecular target: CYP2B6 relative to CYP2A6 (Homo sapiens (Human), UniProt P20813); test: CYP2B6 Vivid blue substrate O-dealkylation inhibition; format: biochemical; conditions: human, recombinant CYP2B6 BACULOSOMES, pH 8, probe Vivid blue substrate (5 μM), O-dealkylation; read-out: 2B6/2A6 selectivity ratio (IC50 CYPX/IC50 CYP2A6)
[9] = molecular target: CYP2C9 relative to CYP2A6 (Homo sapiens (Human), UniProt P11712); test: CYP2C9 Vivid blue substrate O-dealkylation inhibition; format: biochemical; conditions: human, recombinant CYP2C9 BACULOSOMES, pH 8, probe Vivid blue substrate (10 μM), O-dealkylation; read-out: 2C9/2A6 selectivity ratio (IC50 CYPX/IC50 CYP2A6)
[10] = molecular target: CYP2E1 relative to CYP2A6 (Homo sapiens (Human), UniProt P05181); test: CYP2E1 Vivid blue substrate O-dealkylation inhibition; format: biochemical; conditions: human, recombinant CYP2E1 BACULOSOMES, pH 8, probe Vivid blue substrate (10 μM), O-dealkylation; read-out: 2E1/2A6 selectivity ratio (IC50 CYPX/IC50 CYP2A6)
[11] = molecular target: CYP2D6 relative to CYP2A6 (Homo sapiens (Human), UniProt P10635); test: CYP2D6 Vivid blue substrate O-dealkylation inhibition; format: biochemical; conditions: human, recombinant CYP2D6 BACULOSOMES, pH 8, probe Vivid blue substrate (10 μM), O-dealkylation; read-out: 2D6/2A6 selectivity ratio (IC50 CYPX/IC50 CYP2A6)
[12] = molecular target: CYP2C19 relative to CYP2A6 (Homo sapiens (Human), UniProt P33261); test: CYP2C19 Vivid blue substrate O-dealkylation inhibition; format: biochemical; conditions: human, recombinant CYP2C19 BACULOSOMES, pH 8, probe Vivid blue substrate (10 μM), O-dealkylation; read-out: 2C19/2A6 selectivity ratio (IC50 CYPX/IC50 CYP2A6)
human CYP2A6 [13] = molecular target: T1, human CYP2A6; test: biochemical
CYP2A13 [14] = molecular target: T2, CYP2A13 (Homo sapiens (Human), UniProt Q16696); test: in vitro
mouse CYP2A5 = mouse CYP2A5 (Mus musculus (Mouse), UniProt P20852); test: Inhibition of mouse CYP2A5; format: biochemical; conditions: read-out: IC50 mCYP2A5
CYP2A13 [15] = molecular target: T2, CYP2A13; test: Inhibition of human CYP2A13; conditions: human
[16] = Table 4, unit inferred, read-out: 2B6 IC50 ± SD
[17] = Table 4, unit inferred, read-out: 2C9 IC50 ± SD
[18] = Table 4, unit inferred, read-out: 2E1 IC50 ± SD
[19] = Table 4, unit inferred, read-out: 2D6 IC50 ± SD
[20] = read-out: 2A6 IC50 ± SD, Table 4, unit not given (same data in Table 1 in μM)
[21] = Table 4, unit inferred, read-out: 2C19 IC50 ± SD
[22] = read-out: CYP2A6 IC50, coumarin 7-hydroxylation

CYP2C19, sequence (P33261 whole entry): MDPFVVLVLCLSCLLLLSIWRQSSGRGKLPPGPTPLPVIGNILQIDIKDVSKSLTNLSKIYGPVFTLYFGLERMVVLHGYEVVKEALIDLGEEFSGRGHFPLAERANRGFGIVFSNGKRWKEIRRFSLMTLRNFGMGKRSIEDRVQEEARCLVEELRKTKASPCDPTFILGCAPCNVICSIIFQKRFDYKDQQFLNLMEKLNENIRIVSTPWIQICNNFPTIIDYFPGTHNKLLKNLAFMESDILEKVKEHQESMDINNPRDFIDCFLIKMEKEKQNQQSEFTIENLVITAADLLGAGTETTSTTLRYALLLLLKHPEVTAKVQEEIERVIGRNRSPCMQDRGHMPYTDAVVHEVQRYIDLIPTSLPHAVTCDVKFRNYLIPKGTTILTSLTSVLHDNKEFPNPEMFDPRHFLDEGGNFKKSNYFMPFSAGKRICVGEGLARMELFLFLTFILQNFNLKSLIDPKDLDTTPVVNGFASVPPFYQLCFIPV
Acetylcholine Binding Protein, sequence (P58154 20-229 limits assumed): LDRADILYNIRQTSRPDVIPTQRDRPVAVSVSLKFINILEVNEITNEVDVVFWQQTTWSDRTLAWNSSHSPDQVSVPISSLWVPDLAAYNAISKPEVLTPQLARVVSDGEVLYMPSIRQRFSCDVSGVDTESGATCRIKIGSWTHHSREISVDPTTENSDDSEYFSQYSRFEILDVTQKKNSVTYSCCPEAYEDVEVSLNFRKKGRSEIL
Ach binding protein (AchBP), sequence (P58154 20-229 limits assumed): as above
T1 sequence (P11509 whole entry): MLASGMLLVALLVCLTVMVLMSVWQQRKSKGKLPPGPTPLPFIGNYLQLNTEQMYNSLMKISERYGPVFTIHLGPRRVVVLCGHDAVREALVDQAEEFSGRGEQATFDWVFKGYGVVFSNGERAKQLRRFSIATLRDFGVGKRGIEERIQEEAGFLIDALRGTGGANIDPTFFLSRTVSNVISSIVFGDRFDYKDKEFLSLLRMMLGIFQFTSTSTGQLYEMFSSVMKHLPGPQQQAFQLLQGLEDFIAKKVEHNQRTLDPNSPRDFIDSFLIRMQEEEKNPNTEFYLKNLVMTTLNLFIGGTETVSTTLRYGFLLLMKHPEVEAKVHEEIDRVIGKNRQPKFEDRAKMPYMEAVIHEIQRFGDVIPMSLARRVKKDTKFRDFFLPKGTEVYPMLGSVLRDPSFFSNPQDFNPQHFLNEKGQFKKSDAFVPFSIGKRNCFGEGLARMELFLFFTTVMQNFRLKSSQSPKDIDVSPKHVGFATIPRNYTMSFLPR
Microsomal Human CYP2A6, sequence (P11509 whole entry): as above
CYP2E1, sequence (P05181 whole entry): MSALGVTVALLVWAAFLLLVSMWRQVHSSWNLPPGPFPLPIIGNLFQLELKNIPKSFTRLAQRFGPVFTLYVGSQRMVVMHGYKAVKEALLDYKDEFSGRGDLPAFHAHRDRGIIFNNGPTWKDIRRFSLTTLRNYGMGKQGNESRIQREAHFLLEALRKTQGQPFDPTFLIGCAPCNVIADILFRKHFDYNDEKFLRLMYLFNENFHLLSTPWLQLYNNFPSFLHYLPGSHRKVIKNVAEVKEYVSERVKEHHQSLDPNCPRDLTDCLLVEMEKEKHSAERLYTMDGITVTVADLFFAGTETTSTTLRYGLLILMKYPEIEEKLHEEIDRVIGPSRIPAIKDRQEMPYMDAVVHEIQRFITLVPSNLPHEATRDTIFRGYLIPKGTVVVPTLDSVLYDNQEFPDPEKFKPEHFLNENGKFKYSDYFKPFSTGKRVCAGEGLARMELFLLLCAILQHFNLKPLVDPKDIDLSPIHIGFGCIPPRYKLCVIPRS
CYP2B6, sequence (P20813 whole entry): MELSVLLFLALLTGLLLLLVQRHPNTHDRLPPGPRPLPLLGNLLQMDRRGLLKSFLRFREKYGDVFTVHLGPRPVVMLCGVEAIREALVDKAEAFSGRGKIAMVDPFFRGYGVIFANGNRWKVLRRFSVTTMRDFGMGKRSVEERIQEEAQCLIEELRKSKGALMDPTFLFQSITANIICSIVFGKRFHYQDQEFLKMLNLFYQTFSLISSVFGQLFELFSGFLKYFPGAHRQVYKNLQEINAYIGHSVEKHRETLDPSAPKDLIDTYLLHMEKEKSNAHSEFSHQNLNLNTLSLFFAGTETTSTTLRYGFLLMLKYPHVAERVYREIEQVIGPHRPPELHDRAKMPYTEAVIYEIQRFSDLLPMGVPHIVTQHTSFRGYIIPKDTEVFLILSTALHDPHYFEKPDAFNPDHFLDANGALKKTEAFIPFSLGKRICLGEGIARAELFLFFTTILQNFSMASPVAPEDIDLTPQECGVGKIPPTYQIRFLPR
CYP2D6, sequence (P10635 whole entry): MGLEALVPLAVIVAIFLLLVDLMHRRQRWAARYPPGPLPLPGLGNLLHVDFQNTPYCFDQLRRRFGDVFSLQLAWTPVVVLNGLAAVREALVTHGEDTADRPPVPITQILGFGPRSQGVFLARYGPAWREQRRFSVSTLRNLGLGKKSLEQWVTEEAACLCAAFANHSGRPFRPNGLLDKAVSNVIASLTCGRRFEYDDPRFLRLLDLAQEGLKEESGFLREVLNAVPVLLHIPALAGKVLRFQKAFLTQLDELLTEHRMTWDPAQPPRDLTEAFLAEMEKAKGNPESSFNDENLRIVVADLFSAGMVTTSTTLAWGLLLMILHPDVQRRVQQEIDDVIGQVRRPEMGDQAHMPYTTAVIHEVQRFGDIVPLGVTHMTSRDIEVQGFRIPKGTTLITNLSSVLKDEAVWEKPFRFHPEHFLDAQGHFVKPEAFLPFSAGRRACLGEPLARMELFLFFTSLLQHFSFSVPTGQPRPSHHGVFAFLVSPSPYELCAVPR
CYP2C9, sequence (P11712 whole entry): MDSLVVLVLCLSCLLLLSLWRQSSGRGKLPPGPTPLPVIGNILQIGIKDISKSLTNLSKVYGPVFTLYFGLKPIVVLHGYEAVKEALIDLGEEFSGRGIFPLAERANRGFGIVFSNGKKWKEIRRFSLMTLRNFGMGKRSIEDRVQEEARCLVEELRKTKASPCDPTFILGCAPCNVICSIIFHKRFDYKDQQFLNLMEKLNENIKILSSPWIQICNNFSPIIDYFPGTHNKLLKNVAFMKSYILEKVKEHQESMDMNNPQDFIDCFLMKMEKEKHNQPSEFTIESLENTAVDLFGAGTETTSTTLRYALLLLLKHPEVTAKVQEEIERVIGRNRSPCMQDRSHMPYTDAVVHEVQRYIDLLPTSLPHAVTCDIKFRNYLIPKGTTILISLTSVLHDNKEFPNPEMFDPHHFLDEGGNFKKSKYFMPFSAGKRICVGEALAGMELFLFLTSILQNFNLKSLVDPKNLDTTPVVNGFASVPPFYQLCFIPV
P450 2A6dH, sequence (P11509 other isoform, or with tags, fused parts or gaps 1-28 replaced by MAKKTS/ins HHHH behind 494): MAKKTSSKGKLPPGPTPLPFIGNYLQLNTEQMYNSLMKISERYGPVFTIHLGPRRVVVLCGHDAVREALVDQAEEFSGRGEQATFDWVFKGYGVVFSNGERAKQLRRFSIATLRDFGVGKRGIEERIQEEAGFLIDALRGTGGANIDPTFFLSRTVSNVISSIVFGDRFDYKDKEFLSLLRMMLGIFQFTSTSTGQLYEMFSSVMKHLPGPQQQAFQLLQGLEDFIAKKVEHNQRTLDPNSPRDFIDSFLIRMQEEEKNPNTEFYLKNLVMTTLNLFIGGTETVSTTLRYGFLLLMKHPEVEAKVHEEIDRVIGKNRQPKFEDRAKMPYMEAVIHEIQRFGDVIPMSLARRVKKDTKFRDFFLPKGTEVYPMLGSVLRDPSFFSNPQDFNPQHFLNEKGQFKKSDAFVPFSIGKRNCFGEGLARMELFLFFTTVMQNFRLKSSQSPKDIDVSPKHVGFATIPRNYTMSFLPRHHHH
CYP3A4 relative to CYP2A6, sequence (P08684 whole entry): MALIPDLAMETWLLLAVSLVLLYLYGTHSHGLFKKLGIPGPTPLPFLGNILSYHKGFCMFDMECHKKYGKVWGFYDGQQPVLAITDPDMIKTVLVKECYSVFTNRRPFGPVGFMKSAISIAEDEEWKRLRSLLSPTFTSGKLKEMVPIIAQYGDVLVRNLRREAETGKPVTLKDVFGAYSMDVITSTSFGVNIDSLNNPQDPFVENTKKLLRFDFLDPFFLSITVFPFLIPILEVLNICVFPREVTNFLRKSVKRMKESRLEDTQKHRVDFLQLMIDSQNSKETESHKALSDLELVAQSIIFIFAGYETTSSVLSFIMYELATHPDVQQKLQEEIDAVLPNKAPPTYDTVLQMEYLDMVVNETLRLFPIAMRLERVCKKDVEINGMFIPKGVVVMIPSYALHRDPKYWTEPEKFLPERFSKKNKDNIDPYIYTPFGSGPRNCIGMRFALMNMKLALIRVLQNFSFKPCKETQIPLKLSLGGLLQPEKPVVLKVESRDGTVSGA
CYP3A4, sequence (P08684 whole entry): as above
T2 sequence (Q16696 whole entry): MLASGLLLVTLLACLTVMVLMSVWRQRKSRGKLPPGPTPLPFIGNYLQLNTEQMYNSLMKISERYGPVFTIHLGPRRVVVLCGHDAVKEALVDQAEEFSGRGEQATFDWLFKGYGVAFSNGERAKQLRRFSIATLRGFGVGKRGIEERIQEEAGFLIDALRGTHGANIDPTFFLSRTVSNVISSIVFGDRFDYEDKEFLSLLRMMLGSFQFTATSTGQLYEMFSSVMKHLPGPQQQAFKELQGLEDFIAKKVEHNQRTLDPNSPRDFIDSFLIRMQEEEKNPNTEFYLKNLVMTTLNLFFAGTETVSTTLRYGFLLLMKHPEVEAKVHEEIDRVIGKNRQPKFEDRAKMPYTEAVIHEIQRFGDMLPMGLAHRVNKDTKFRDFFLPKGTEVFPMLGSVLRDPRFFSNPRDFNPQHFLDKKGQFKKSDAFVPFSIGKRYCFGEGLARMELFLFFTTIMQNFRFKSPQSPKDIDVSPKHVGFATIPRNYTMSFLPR
CYP2E1 relative to CYP2A6, sequence (P05181 whole entry): as the sequence (P05181 whole entry) above
CYP2B6 relative to CYP2A6, sequence (P20813 whole entry): as the sequence (P20813 whole entry) above
CYP2D6 relative to CYP2A6, sequence (P10635 whole entry): as the sequence (P10635 whole entry) above

In the case of `NCC1CCC(c2cccnc2)O1` (racemic) [Compound 38], the IC50 (CYP3A4; human, microsomes, pH 7.5) is reported as 77.5 ± 14.6 µM, the “Selectivity ratio (IC50 CYPX/IC50 CYP2A6) 3A4/2A6” value (CYP3A4; human, pH 7.5) is reported as 21 and the “Selectivity ratio (IC50 CYPX/IC50 CYP2A6) 2B6/2A6” value (CYP2B6; human CYP2B6 versus human CYP2A6) is reported as 69. For the same molecule, the IC50 (CYP2B6; read-out: IC50 ± SD 2B6, insect cell microsomes expressing CYP2B6, 0.2M potassium phosphate buffer, mean of at least 3 determinations ± SD) was 256 ± 29 µM, the IC50 (Microsomal Human CYP2A6) was 5.21 ± 1.68 µM and the “CYP2A6 inhibition (in words)” value (human CYP2A6 [1]) was “significantly diminished”. The “Selectivity ratio (IC50 CYPX/IC50 CYP2A6) 2C9/2A6” value (CYP2C9; human CYP2C9 versus human CYP2A6) was 56, the IC50 (CYP2C9; read-out: IC50 ± SD 2C9, insect cell microsomes expressing CYP2C9, 0.2M potassium phosphate buffer, mean of at least 3 determinations ± SD) was 208 ± 21 µM and the “Selectivity ratio (IC50 CYPX/IC50 CYP2A6) 2E1/2A6” value (CYP2E1; human CYP2E1 versus human CYP2A6) was 21. For the same molecule, the IC50 (CYP2E1; read-out: IC50 ± SD 2E1, insect cell microsomes expressing CYP2E1, 0.2M potassium phosphate buffer, mean of at least 3 determinations ± SD) was 77.5 ± 14.6 µM, the “Selectivity ratio (IC50 CYPX/IC50 CYP2A6) 2D6/2A6” value (CYP2D6; human CYP2D6 versus human CYP2A6) was 53 and the IC50 (CYP2D6; read-out: IC50 ± SD 2D6, insect cell microsomes expressing CYP2D6, 0.2M potassium phosphate buffer, mean of at least 3 determinations ± SD) was 197 ± 21 µM. For the same molecule, the “binding to the AchBP (in words)” value [2] was “modest binding avidity”, the AchBP [2] was “+” and the “Selectivity ratio (IC50 CYPX/IC50 CYP2A6) 2C19/2A6” value (CYP2C19; human CYP2C19 versus human CYP2A6) was 62. The IC50 (CYP2C19; read-out: IC50 ± SD 2C19, insect cell microsomes expressing CYP2C19, 0.2M potassium phosphate buffer, mean of at least 3 determinations ± SD) was 233 ± 21 µM.
With `NC1CC1c1cccnc1` (stereo not drawn) [2-(pyridin-3-yl)cyclopropanamine] the “% of Control” value [3] was 8%.
For `NCc1ccc(-c2cccnc2)o1` [(5-(pyridin-3-yl)furan-2-yl)methanamine], the “% of Control” value [3] was 20%.
In the case of `CNCc1ccc(-c2cccnc2)s1` [Compound 1b], the IC50 (CYP3A4) is reported as greater than 400 µM, the IC50 (CYP2B6; [16]) is reported as greater than 400 µM and the IC50 (CYP2C9; [17]) is reported as 67.7 ± 3.7 µM. The IC50 (CYP2E1; [18]) was greater than 400 µM, the IC50 (CYP2D6; [19]) was 113 ± 19 µM and the λmax (P450 2A6dH) was 430 nm. The λmin (P450 2A6dH) was 410 nm, the binding type (P450 2A6dH) was “Type II” and the IC50 (human CYP2A6 [4]; [20]) was 1.1 ± 0.13 µM. For the same molecule, the half-life at 40 μM [5] was 1.6 h, the “MLM t1/2” value [6] was “Stable^a” and the IC50 (CYP2C19; [21]) was 59.8 ± 6.5 µM.
Work on `CN(C)Cc1ccc(-c2cccnc2)s1` [Compound 1c] yielded a selectivity ratio at 30 min [7] of 1.6, an IC50 (CYP3A4) of 219 ± 23 µM and an IC50 (CYP2B6; [16]) greater than 400 µM. It also gave a selectivity ratio at 40 min [8] greater than 3, an IC50 (CYP2C9; [17]) of 206 ± 23 µM and a selectivity ratio at 40 min [9] of 1.5. It also gave a selectivity ratio at 40 min [10] greater than 3, an IC50 (CYP2E1; [18]) greater than 400 µM and a selectivity ratio at 40 min [11] of 0.2. The IC50 (CYP2D6; [19]) was 28.7 ± 4.1 µM, the λmax (P450 2A6dH) was 428 nm and the λmin (P450 2A6dH) was 411 nm. The binding type (P450 2A6dH) was “Type II”, the IC50 (human CYP2A6 [4]; [20]) was 133 ± 21 µM and the “HLM t1/2” value ([5]; 40 μM test compound) was “Stable^a”. For the same molecule, the half-life at 40 μM ([6]; mouse, pH 7.4) was 5.72 h, the selectivity ratio at 40 min [12] was 0.8 and the IC50 (CYP2C19; [21]) was 106 ± 18 µM.
Molecule `CNCc1ccc(-c2cccnc2)o1` [Compound 2b] has a selectivity ratio at 30 min [7] greater than 250, an IC50 (CYP3A4) greater than 400 µM and an IC50 (CYP2B6; [16]) of 358 ± 22 µM. It also gave a selectivity ratio at 40 min [8] of 224, an IC50 (CYP2C9; [17]) of 76.1 ± 9.1 µM and a selectivity ratio at 40 min [9] of 48. The selectivity ratio at 40 min [10] was greater than 250, the IC50 (CYP2E1; [18]) was greater than 400 µM and the selectivity ratio at 40 min [11] was 57. The IC50 (CYP2D6; [19]) was 90.6 ± 7.8 µM, the λmax (P450 2A6dH) was 431 nm and the λmin (P450 2A6dH) was 411 nm. The binding type (P450 2A6dH) was “Type II”, the IC50 (human CYP2A6 [4]; [20]) was 1.6 ± 0.34 µM and the half-life at 40 μM [5] was 1.1 h. For the same molecule, the “MLM t1/2” value [6] was “Stable^a”, the selectivity ratio at 40 min [12] was 19 and the IC50 (CYP2C19; [21]) was 30.6 ± 4.1 µM.
Work on `BrCC1CCC(c2cccnc2)O1` (stereo not drawn) [Compound 32] yielded an IC50 (Microsomal Human CYP2A6) of 0.36 ± 0.18 µM.
Work on `O/N=C/c1ccc(-c2cccnc2)o1` [Compound 39] yielded an IC50 (CYP3A4; human, pH 7.5) greater than 400 µM and an IC50 (human CYP2A6 [13]) of 9.75 ± 0.91 µM.
In the case of `CCC1CCC(c2cccnc2)O1` (stereo not drawn) [Compound 44], the IC50 (Microsomal Human CYP2A6) is reported as 0.02 ± 0.02 µM, the “inhibition of microsomal nicotine oxidase (in words)” value (Microsomal Human CYP2A6) is reported as “quite potent” and the IC50 (human CYP2A6 [4]; [22]) is reported as 13.6 ± 3.48 µM.
For `CN1CCCC1c1cccnc1` (stereo not drawn) [Compound 54, Nicotine], the Ki (human CYP2A6 [13]) was 4.4 ± 0.6 µM.
`CN1CCCC1c1cccnc1` (stereo not drawn) [Compound 54] gave a selectivity ratio ([7]; pH 7.5, Selectivity Ratio: IC50 (Inhibition of CYP3A4)/IC50 (Inhibition of CYP2A6)) of 5, an IC50 (CYP3A4) of 142 ± 15.7 µM and an IC50 (human CYP2A6 [13]) of 26.3 ± 3.4 µM.
With `OCC1CCC(c2cccnc2)O1` (stereo not drawn) [Compound 69] the “binding to the AchBP (in words)” value [2] was “non-binders”, the AchBP [2] was “−” and the IC50 (human CYP2A6 [4]; [22]) was 61.4 ± 17.7 µM.
`c1cncc(-c2ccsc2)c1` [TD-I-145] gave an IC50 (human CYP2A6 [1]) of 1.37 ± 0.23 µM, an inhibition at 1 µM (CYP2A13 [14]) of 12% and an IC50 (mouse CYP2A5) of 0.8 µM.
`NCc1ccc(-c2cccnc2)o1` [TD-II-063] showed an inhibition at 1 µM (CYP2A13 [14]) of 29% and an IC50 (mouse CYP2A5) of 0.6 µM.
In the case of `O/N=C/c1ccc(-c2cccnc2)o1` [TD-II-065 ESP trans isomer], the IC50 (human CYP2A6 [1]) is reported as 4.24 ± 0.49 µM and the inhibition at 1 µM (CYP2A13 [14]) is reported as 41%.
Work on `CNCC#Cc1cccnc1` [TD-IV-091 41] yielded an inhibition at 1 µM (CYP2A13 [14]) of 2%.
With `CC(=O)SCc1ccc(-c2cccnc2)o1` [TD-V-099] the IC50 (human CYP2A6 [13]) was 1.8 ± 0.3 µM and the inhibition at 1 µM (CYP2A13 [15]) was 13%.
For `c1cncc(-c2ccc(CNCc3ccc(-c4cccnc4)s3)s2)c1` [bis((5-(pyridin-3-yl)thiophen-2-yl)methyl)amine], the “% of Control” value [3] was 10%.
